Measurements published in patent US8304206B2, “Mass spectrometry assays for identifying compounds that activate deacetylases” (Sirtris Pharmaceuticals, Inc., priority 2005, dated 2012).

Target: T1, SIRT1 (Homo sapiens, UniProt Q96EB6)
T1 sequence (Q96EB6 1-747): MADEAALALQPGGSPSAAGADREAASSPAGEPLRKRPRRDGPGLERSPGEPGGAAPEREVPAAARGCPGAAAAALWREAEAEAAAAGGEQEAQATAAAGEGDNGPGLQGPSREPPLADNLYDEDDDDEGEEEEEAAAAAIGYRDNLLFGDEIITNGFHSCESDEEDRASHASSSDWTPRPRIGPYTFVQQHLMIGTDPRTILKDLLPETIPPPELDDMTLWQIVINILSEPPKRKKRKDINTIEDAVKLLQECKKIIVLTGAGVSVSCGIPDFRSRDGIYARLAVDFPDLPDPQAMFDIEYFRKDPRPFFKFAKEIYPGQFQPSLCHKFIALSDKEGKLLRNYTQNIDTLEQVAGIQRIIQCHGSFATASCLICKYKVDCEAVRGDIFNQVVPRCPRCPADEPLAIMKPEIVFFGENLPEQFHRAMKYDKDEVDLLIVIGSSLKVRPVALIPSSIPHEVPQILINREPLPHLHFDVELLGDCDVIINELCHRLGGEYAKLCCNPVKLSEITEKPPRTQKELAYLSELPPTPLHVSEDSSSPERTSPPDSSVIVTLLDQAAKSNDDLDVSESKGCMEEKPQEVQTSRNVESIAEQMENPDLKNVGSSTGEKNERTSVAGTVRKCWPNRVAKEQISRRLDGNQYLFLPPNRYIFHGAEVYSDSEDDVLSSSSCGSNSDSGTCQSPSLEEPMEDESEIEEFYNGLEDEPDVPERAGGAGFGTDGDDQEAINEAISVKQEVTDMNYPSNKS
Assay: SIRT1 mass spectrometry assay (screening for activation)
Format: biochemical
Settings: for FOLD ACTIVATION MS: activation of SIRT1, mass spectrometry; for EC50: activation of SIRT1, 0.5 μM peptide substrate (SEQ ID NO: 34), 120 μM NAD+, 10 nM SIRT1, 25 min, read-out: ED50 MS ASSAY

COc1ccc(C(=O)Nc2cccc(-c3cc4cccnc4o3)c2)cc1OC [compound 192]
FOLD ACTIVATION MS: B (Fold Activation<250%)

CN(C)c1cccc(C(=O)Nc2ccc(-c3nc4ncccc4s3)cc2)c1 [compound 196]
FOLD ACTIVATION MS: B (Fold Activation<250%)

COc1ccc(C(=O)Nc2ccc(-c3nc4ncccc4s3)cc2)cc1OC [compound 197]
FOLD ACTIVATION MS: B (Fold Activation<250%) | EC50: < 50 µM

COc1ccc(C(=O)Nc2cccc(-c3nc4ncccc4s3)c2)c(OC)c1OC [compound 198]
FOLD ACTIVATION MS: B (Fold Activation<250%)

COc1cc(C)ccc1C(=O)Nc1cccc(-c2nc3ncccc3s2)c1 [compound 199]
FOLD ACTIVATION MS: B (Fold Activation<250%) | EC50: < 50 µM

CN(C)c1cccc(C(=O)Nc2cccc(-c3nc4ncccc4s3)c2)c1 [compound 200]
FOLD ACTIVATION MS: B (Fold Activation<250%) | EC50: < 50 µM

COc1ccc(C(=O)Nc2cccc(-c3nc4ncccc4s3)c2)cc1OC [compound 201]
FOLD ACTIVATION MS: B (Fold Activation<250%)

COc1ccc(C(=O)Nc2cccc(-c3nc4ncccc4s3)c2)c(OC)c1 [compound 202]
FOLD ACTIVATION MS: B (Fold Activation<250%) | EC50: < 50 µM

COc1ccc(C(=O)Nc2ccccc2-c2cn3ccsc3n2)cc1OC [compound 203]
FOLD ACTIVATION MS: B (Fold Activation<250%) | EC50: < 50 µM

COc1cc(C(=O)Nc2ccccc2-c2cn3ccsc3n2)cc(OC)c1OC [compound 204]
FOLD ACTIVATION MS: A (Fold activation>250%) | EC50: < 50 µM

COc1ccc(C(=O)Nc2ccccc2-c2cn3c(CN(C)C)csc3n2)cc1OC [compound 205]
FOLD ACTIVATION MS: A (Fold activation>250%)

COc1cc(C(=O)Nc2ccccc2-c2cn3c(CN(C)C)csc3n2)cc(OC)c1OC [compound 206]
FOLD ACTIVATION MS: A (Fold activation>250%)

COc1ccc(C(=O)Nc2ccccc2-c2cn3c(CN4CCNCC4)csc3n2)cc1OC [compound 207]
FOLD ACTIVATION MS: A (Fold activation>250%)

COc1cc(C(=O)Nc2ccccc2-c2cn3c(CN4CCNCC4)csc3n2)cc(OC)c1OC [compound 208]
FOLD ACTIVATION MS: A (Fold activation>250%)

COc1ccc(C(=O)Nc2ccccc2-c2cn3c(CN4CCOCC4)csc3n2)cc1OC [compound 209]
FOLD ACTIVATION MS: A (Fold activation>250%)

COc1cc(C(=O)Nc2ccccc2-c2cn3c(CN4CCOCC4)csc3n2)cc(OC)c1OC [compound 210]
FOLD ACTIVATION MS: B (Fold Activation<250%)

COc1ccc(C(=O)Nc2cccc(-c3nc4ccccc4[nH]3)c2)c(OC)c1 [compound 211]
FOLD ACTIVATION MS: B (Fold Activation<250%) | EC50: < 50 µM

COc1cccc(C(=O)Nc2cccc(-c3nc4cccnc4s3)c2)c1 [compound 212]
FOLD ACTIVATION MS: B (Fold Activation<250%)

COc1ccc(C(=O)Nc2cccc(-c3nc4cccnc4s3)c2)c(OC)c1 [compound 213]
FOLD ACTIVATION MS: B (Fold Activation<250%) | EC50: < 50 µM

COc1cccc(C(=O)Nc2cccc(-c3nc4cccnc4s3)c2)c1OC [compound 214]
FOLD ACTIVATION MS: B (Fold Activation<250%)

COc1cc(OC)cc(C(=O)Nc2cccc(-c3nc4cccnc4s3)c2)c1 [compound 215]
FOLD ACTIVATION MS: B (Fold Activation<250%) | EC50: < 50 µM

COc1ccc(C(=O)Nc2cccc(-c3nc4cccnc4s3)c2)cc1 [compound 216]
FOLD ACTIVATION MS: B (Fold Activation<250%) | EC50: < 50 µM

COc1cc(C(=O)Nc2cccc(-c3nc4cccnc4s3)c2)cc(OC)c1OC [compound 217]
FOLD ACTIVATION MS: A (Fold activation>250%) | EC50: < 50 µM

COc1cc(C(=O)Nc2cccc(-c3cn4cccnc4n3)c2)cc(OC)c1OC [compound 218]
FOLD ACTIVATION MS: A (Fold activation>250%) | EC50: < 50 µM

COc1cc(C(=O)Nc2cccc(-c3nc4ncccn4c3C)c2)cc(OC)c1OC [compound 219]
FOLD ACTIVATION MS: A (Fold activation>250%)

O=C(Nc1cccc(-c2nc3ccncc3s2)c1)c1ccco1 [compound 221]
FOLD ACTIVATION MS: B (Fold Activation<250%)

O=C(Nc1cccc(-c2nc3ccncc3s2)c1)c1cccnc1Cl [compound 222]
FOLD ACTIVATION MS: B (Fold Activation<250%)

O=C(Nc1cccc(-c2nc3ccncc3s2)c1)c1cccs1 [compound 223]
FOLD ACTIVATION MS: B (Fold Activation<250%) | EC50: < 50 µM

Cc1cc(C(=O)Nc2cccc(-c3nc4ccncc4s3)c2)n(C(C)(C)C)n1 [compound 228]
FOLD ACTIVATION MS: A (Fold activation>250%)

O=C(Nc1cccc(-c2nc3ccncc3s2)c1)c1cnn(-c2ccccc2)c1C(F)(F)F [compound 238]
FOLD ACTIVATION MS: B (Fold Activation<250%) | EC50: < 50 µM

O=S(=O)(Nc1cccc(-c2nc3ccncc3s2)c1)c1ccc(OC(F)(F)F)cc1 [compound 239]
FOLD ACTIVATION MS: B (Fold Activation<250%) | EC50: < 50 µM

O=C(Nc1cccc(-c2nc3ccncc3s2)c1)c1ccc(-c2ccccc2)o1 [compound 241]
FOLD ACTIVATION MS: B (Fold Activation<250%) | EC50: < 50 µM

O=C(Nc1cccc(-c2nc3ccncc3s2)c1)c1ccccc1Oc1ccccc1 [compound 245]
FOLD ACTIVATION MS: B (Fold Activation<250%) | EC50: < 50 µM

Cn1nc(C(C)(C)C)cc1C(=O)Nc1cccc(-c2nc3ccncc3s2)c1 [compound 246]
FOLD ACTIVATION MS: B (Fold Activation<250%) | EC50: < 50 µM

O=C(Nc1cccc(-c2nc3ccncc3s2)c1)c1cc(C(F)(F)F)ccc1C(F)(F)F [compound 248]
FOLD ACTIVATION MS: B (Fold Activation<250%)

COc1ccc(C(=O)Nc2ccccc2-c2cc3ccccc3[nH]2)cc1OC [compound 254]
FOLD ACTIVATION MS: B (Fold Activation<250%) | EC50: < 50 µM

COc1cc(C(=O)Nc2ccccc2-c2cc3ccccc3[nH]2)cc(OC)c1OC [compound 255]
FOLD ACTIVATION MS: B (Fold Activation<250%) | EC50: < 50 µM

COC(=O)c1ccc(-n2cncn2)c(NC(=O)c2ccc(OC)c(OC)c2)c1 [compound 258]
FOLD ACTIVATION MS: B (Fold Activation<250%)

COc1cc(C(=O)Nc2cccc(-c3nc4ccccc4[nH]3)n2)cc(OC)c1OC [compound 259]
FOLD ACTIVATION MS: A (Fold activation>250%) | EC50: < 50 µM

COc1ccc(C(=O)Nc2cccc(-c3nc4ccccc4[nH]3)n2)cc1OC [compound 260]
FOLD ACTIVATION MS: A (Fold activation>250%) | EC50: < 50 µM

COc1cccc(C(=O)Nc2cccc(-c3nc4ccccc4[nH]3)n2)c1 [compound 261]
FOLD ACTIVATION MS: A (Fold activation>250%) | EC50: < 50 µM

COc1ccc(C(=O)Nc2ccc(-c3nc4ccccc4[nH]3)cc2)c(OC)c1 [compound 262]
FOLD ACTIVATION MS: B (Fold Activation<250%) | EC50: < 50 µM

COc1cc(C(=O)Nc2ccc(-c3nc4ccccc4[nH]3)cc2)cc(OC)c1OC [compound 263]
FOLD ACTIVATION MS: B (Fold Activation<250%)

CN(C)c1cccc(C(=O)Nc2ccc(-c3cc4ccccc4[nH]3)cc2)c1 [compound 264]
FOLD ACTIVATION MS: B (Fold Activation<250%) | EC50: < 50 µM

COc1ccc(C(=O)Nc2ccccc2-c2cn3ccccc3n2)c(OC)c1 [compound 265]
FOLD ACTIVATION MS: B (Fold Activation<250%)

COc1ccc(C(=O)Nc2ccccc2-c2cn3ccccc3n2)cc1OC [compound 266]
FOLD ACTIVATION MS: A (Fold activation>250%) | EC50: < 50 µM

COc1cc(C(=O)Nc2ccccc2-c2cn3ccccc3n2)cc(OC)c1OC [compound 267]
FOLD ACTIVATION MS: B (Fold Activation<250%) | EC50: < 50 µM

CN(C)c1cccc(C(=O)Nc2ccccc2-c2cn3ccccc3n2)c1 [compound 268]
FOLD ACTIVATION MS: B (Fold Activation<250%) | EC50: < 50 µM

COc1ccc(C(=O)Nc2ccccc2-c2cn3cc(CN4CCNCC4)sc3n2)cc1OC [compound 270]
FOLD ACTIVATION MS: A (Fold activation>250%)

COc1cc(C(=O)Nc2ccccc2-c2cn3cc(CN4CCNCC4)sc3n2)cc(OC)c1OC [compound 271]
FOLD ACTIVATION MS: A (Fold activation>250%) | EC50: < 50 µM

COc1ccc(C(=O)Nc2cccc(-c3nc4cnccc4s3)c2)c(OC)c1 [compound 272]
FOLD ACTIVATION MS: B (Fold Activation<250%) | EC50: < 50 µM

COc1cc(C(=O)Nc2cccc(-c3nc4cnccc4s3)c2)cc(OC)c1OC [compound 273]
FOLD ACTIVATION MS: A (Fold activation>250%)

COc1ccc(C(=O)Nc2ncccc2-c2nc3ccccc3[nH]2)cc1OC [compound 276]
FOLD ACTIVATION MS: B (Fold Activation<250%) | EC50: < 50 µM

CC(=O)Nc1ccc(S(=O)(=O)Nc2cccc(-c3nc4ccncc4s3)c2)cc1 [compound 288]
FOLD ACTIVATION MS: B (Fold Activation<250%)

COc1ccc(S(=O)(=O)Nc2cccc(-c3nc4ccncc4s3)c2)cc1OC [compound 289]
FOLD ACTIVATION MS: B (Fold Activation<250%)
